Laboratory results as given in the supplement of paper PMC10307832.

How the values were obtained:
Assay in all cases: relative viability (nuclei count vs DMSO), 5 days (fraction); higher = more cells survive
[1] = compound: CC(C)C[C@H](NC(=O)[C@H](CCc1ccccc1)NC(=O)CN1CCOCC1)C(=O)N[C@@H](Cc1ccccc1)C(=O)N[C@@H](CC(C)C)C(=O)[C@@]1(C)CO1 [Carfilzomib] + CC(=O)Nc1cccc(-n2c(=O)n(C3CC3)c(=O)c3c(Nc4ccc(I)cc4F)n(C)c(=O)c(C)c32)c1 [Trametinib] (partner 0.02 µM)
Outline: (§1)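 The day after seeding in 1536-well plates, lung cancer cell lines were treated by pin tool with a single drug, or with a fixed anchor-drug dose together with five library-drug doses (not always all listed) in √10 steps. After 5 days, a combined fix-and-stain solution (final 0.05% Triton X-100, 1% formaldehyde, 1 ug/ml Hoechst) was added. Nuclei counted on 4× images gave relative viability as treated counts over vehicle counts, reported as the median of duplicate plates.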

[2] = compound: C[C@@H](Oc1cc(-c2cnn(C3CCNCC3)c2)cnc1N)c1c(Cl)ccc(F)c1Cl [Crizotinib] + N=C(N)NC(=N)NCCc1ccccc1 [Phenformin] (partner 250 µM)
Outline: as §1

[3] = compound: O=C(c1cc(Cc2n[nH]c(=O)c3ccccc23)ccc1F)N1CCN(C(=O)C2CC2)CC1 [Olaparib] + CCNC(=O)c1noc(-c2cc(C(C)C)c(O)cc2O)c1-c1ccc(CN2CCOCC2)cc1 [Luminespib] (partner 0.01 µM)
Outline: as §1

[4] = compound: O=C(c1cc(Cc2n[nH]c(=O)c3ccccc23)ccc1F)N1CCN(C(=O)C2CC2)CC1 [Olaparib] + NC(=O)Nc1cc(-c2cccc(F)c2)sc1C(=O)N[C@H]1CCCNC1 [AZD7762] (partner 0.2 µM)
Outline: as §1

| Cell Line | relative viability ([1]; first compound 0.001 µM) | relative viability ([1]; first compound 0.003162 µM) | relative viability ([1]; first compound 0.01 µM) | relative viability ([1]; first compound 0.03162 µM) | relative viability ([1]; first compound 0.1 µM) | relative viability ([2]; first compound 0.01 µM) | relative viability ([2]; first compound 0.03162 µM) | relative viability ([2]; first compound 0.1 µM) | relative viability ([2]; first compound 0.3162 µM) | relative viability ([2]; first compound 1 µM) | relative viability ([3]; first compound 0.08 µM) | relative viability ([3]; first compound 0.253 µM) | relative viability ([3]; first compound 2.53 µM) | relative viability ([3]; first compound 8 µM) | relative viability ([4]; first compound 0.08 µM) | relative viability ([4]; first compound 0.253 µM) | relative viability ([4]; first compound 2.53 µM) | relative viability ([4]; first compound 8 µM) |
| --- | --- | --- | --- | --- | --- | --- | --- | --- | --- | --- | --- | --- | --- | --- | --- | --- | --- | --- |
| 201T | 0.712 | 0.705 | 0.718 | 0.734 | 0.679 | 0.42 | 0.48 | 0.455 | 0.445 | 0.726 | 1.08 | 0.959 | 1.03 | 0.972 | 0.641 | 0.609 | 0.522 | 0.383 |
| A549 | – | – | – | – | – | 0.165 | 0.136 | 0.167 | 0.141 | 0.172 | – | – | – | – | – | – | – | – |
| A-427 | 0.83 | 0.744 | 0.755 | 0.528 | 0.201 | 0.303 | 0.349 | 0.419 | – | 0.28 | 1.02 | 0.856 | 0.859 | 0.898 | 0.786 | 0.671 | 0.579 | 0.427 |
| ABC-1 | – | – | – | – | – | – | 0.22 | 0.211 | 0.238 | 0.269 | 0.816 | – | – | 0.354 | 0.799 | 0.75 | 0.842 | 0.691 |
| BEN | 0.961 | 0.995 | 1.07 | 1.11 | 0.451 | 0.259 | 0.253 | 0.256 | 0.235 | 0.257 | – | 0.308 | 0.283 | 0.31 | 0.638 | 0.571 | 0.727 | 0.664 |
| CAL-12T | 0.367 | 0.288 | 0.428 | 0.167 | 0.11 | 0.503 | 0.609 | 0.606 | – | 0.558 | 0.604 | 0.376 | 0.365 | 0.355 | 0.757 | 0.555 | 0.726 | 0.544 |
| COR-L23 | 0.565 | 0.739 | 0.577 | 0.0935 | 0.0822 | 0.376 | 0.409 | 0.426 | 0.389 | 0.428 | 0.722 | 0.539 | 0.448 | 0.186 | – | – | – | – |
| COR-L 105 | 0.451 | 0.458 | 0.416 | 0.35 | 0.328 | 0.384 | 0.516 | 0.406 | 0.431 | 0.492 | 0.736 | 0.782 | 0.595 | 0.565 | – | – | – | – |
| ChaGo-K-1 | 0.873 | 0.924 | 0.878 | 0.47 | 0.168 | 0.457 | 0.511 | 0.486 | 0.329 | 0.457 | 0.596 | 0.515 | 0.411 | 0.29 | 0.955 | 0.785 | 0.811 | 0.626 |
| EKVX | 0.338 | 0.418 | 0.368 | – | 0.172 | 0.209 | 0.241 | 0.238 | 0.187 | 0.221 | 1.03 | 0.831 | 0.791 | 0.784 | 0.81 | 0.618 | 0.782 | 0.741 |
| EMC-BAC-2 | 0.895 | 0.962 | 1.04 | 0.791 | 0.277 | 0.532 | 0.544 | 0.569 | 0.253 | 0.473 | 1.12 | 1.02 | 0.955 | 0.646 | 1.25 | 1.08 | 1.08 | 0.91 |
| EPLC-272H | 0.281 | 0.303 | 0.286 | 0.0724 | 0.0619 | 0.261 | 0.283 | 0.302 | 0.29 | 0.39 | 0.291 | 0.321 | 0.254 | 0.279 | 0.289 | 0.163 | 0.176 | 0.114 |
| H3255 | 0.67 | 0.737 | 0.643 | – | 0.24 | 0.348 | 0.424 | 0.385 | 0.327 | 0.334 | 0.885 | 0.832 | 0.907 | 0.819 | 1.04 | 0.823 | 0.852 | 0.933 |
| HARA | 0.66 | 0.693 | 0.627 | 0.339 | 0.109 | 0.468 | 0.501 | 0.462 | – | 0.47 | 1.22 | 0.531 | 0.8 | 0.523 | 0.302 | 0.43 | 0.251 | 0.206 |
| HCC-15 | 0.367 | 0.426 | 0.432 | 0.372 | 0.17 | 0.444 | 0.475 | 0.479 | – | 0.42 | 0.462 | 0.372 | 0.346 | 0.191 | 1.24 | 1.11 | 1.23 | 1.08 |
| HCC-44 | 0.966 | 1.08 | 1 | 1.07 | 0.77 | 0.225 | 0.263 | 0.264 | 0.173 | 0.13 | 1.44 | 0.984 | 0.449 | 0.411 | 1.01 | 1 | 1.03 | 1.07 |
| HCC-78 | 0.672 | 0.849 | 0.69 | 0.597 | 0.255 | – | 0.682 | 0.772 | 0.598 | 0.465 | – | – | – | – | 0.839 | 0.664 | 0.672 | 0.737 |
